≈ marks a conversion by molar mass, not a printed value.
Columns and labels:
[1] = target: human histamine 3 receptor (hH3R) (Homo sapiens (Human), UniProt Q9Y5N1); test: Binding affinity of human histamine 3 receptor (hH3R), [3H] labeled N-α-methylhistamine displacement; settings: hH3R-overexpressed cell membrane, [3H] N-α-methylhistamine
Description: 10 μL of the prepared compound solution was allocated in each well of a 96-well plate, and then 10 μL of 200 μM (R)(−)-α-methylhistamine (RaMH) diluted with analysis buffer and 1% of DMSO were transferred to each well to calculate non-specific binding and total binding degree. 15 μg of human histamine 3 receptor-overexpressed cell membrane (PerkinElmer) was diluted with 180 μL of analysis buffer solution (50 mM tris-HCl pH 7.4, 5 mM MgCl2), and that was transferred to each well. [^3H] labeled Na-methylhistamine (PerkinElmer) was diluted into […], 10 μL of that was added to each well, and then it was kept in a 27° C. incubator for 30 minutes. After the reaction, 200 μL of the mixture was transferred to a glass fiber plate in which 0.5% polyethylene amine was presoaked, and then non-binding [^3H] labeled Na-methylhistamine was removed in vacuum. After 5 times washing with 200 μL of washing buffer solution (50 mM tris-HCl, pH 7.4), the plate was dried in a 37° C. oven for 18 hours. 100 μL of betascint cocktail solution was added to each well, and after 1 hour CPM of [^3H] labeled N-α-methylhistamine was measured by using Wallac beta-counter TriLux. The binding affinity (IC50) of the human histamine 3 receptor for the present invention was analyzed by an Excel program, and the results of analysis are shown in Table 2.

[2] = target: human histamine 4 receptor (hH4R) (Homo sapiens (Human), UniProt Q9H3N8); test: Binding affinity of human histamine 4 receptor (hH4R), [3H] labeled histamine displacement; settings: hH4R-overexpressed cell membrane, [3H] histamine
Description: 20 μL of the prepared compound solution was transferred to each well of a 96-well plate, and then 20 μL of 100 μM histamine diluted with analysis buffer solution and 1% DMSO were transferred to each well to calculate non-specific binding and total binding degree. 25 μg of human histamine 4 receptor-overexpressed cell membrane (PerkinElmer) was diluted into 160 μL of analysis buffer solution and that was transferred to each well. [^3H] labeled histamine (PerkinElmer) was diluted into 1 μM concentration, 20 μL was allocated in each well, and then it was kept in a 27° C. incubator for 30 minutes. After the reaction, 200 μL of the mixture was transferred to a glass fiber plate in which 0.5% polyethylene amine was presoaked, and then non-binding [^3H] labeled histamine was removed in vacuum. After 4 times washing with 200 μL of washing buffer solution (50 mM tris-HCl, pH 7.4), the plate was dried in a 37° C. oven for 18 hours. 100 μL of betascint cocktail solution was added to each well, and after 1 hour CPM (count per minute) value of [^3H] labeled histamine was measured by using Wallac beta-counter TriLux.

[3] = Solubility in artificial gastrointestinal tract solution; format: physicochemical; settings: artificial gastrointestinal tract solution, thermodynamic from solid; for solubility at 1 h: fassgf or other biorelevant, first solution pH 1.2, 2 mg/mL sample, 37° C. 1 hour; for solubility at 2 h: fassif, second solution pH 6.5, 2 mg/mL sample, 37° C. 2 hours
Description: 2.0 g of sodium chloride was added in 7.0 mL of 37% of hydrochloric acid and water to make the total volume of 1 L. The pH was adjusted to exactly 1.2 with 1N sodium hydroxide or 1N hydrochloric acid. A small amount (20 mL) of this solution was taken and added in 25 μL of triton X-100 to make the total volume of 25 mL.
0.348 g sodium hydroxide, 3.438 g NaH2PO4, 6.186 g sodium chloride and water were added to make the total volume of 1 L. The pH was adjusted to exactly 6.5 with 1N sodium hydroxide or 1N hydrochloric acid. A small amount (20 mL) of this solution was taken and 41.25 mg of sodium taurocholate hydrate and 25 μL of 750 mM lecithin dissolved in ethanol was added to make the total volume of 25 mL.
The heated test sample solutions were filtered to remove undissolved compounds therein. Finally, 100 μL of the completely compound-dissolved solution was sampled and 100 μL of CH3CN was added thereto to make the test sample solution. For each analysis of the test sample solution, the solubility was measured by using liquid chromatography.

Chain of human histamine 3 receptor (hH3R) (Q9Y5N1 whole entry): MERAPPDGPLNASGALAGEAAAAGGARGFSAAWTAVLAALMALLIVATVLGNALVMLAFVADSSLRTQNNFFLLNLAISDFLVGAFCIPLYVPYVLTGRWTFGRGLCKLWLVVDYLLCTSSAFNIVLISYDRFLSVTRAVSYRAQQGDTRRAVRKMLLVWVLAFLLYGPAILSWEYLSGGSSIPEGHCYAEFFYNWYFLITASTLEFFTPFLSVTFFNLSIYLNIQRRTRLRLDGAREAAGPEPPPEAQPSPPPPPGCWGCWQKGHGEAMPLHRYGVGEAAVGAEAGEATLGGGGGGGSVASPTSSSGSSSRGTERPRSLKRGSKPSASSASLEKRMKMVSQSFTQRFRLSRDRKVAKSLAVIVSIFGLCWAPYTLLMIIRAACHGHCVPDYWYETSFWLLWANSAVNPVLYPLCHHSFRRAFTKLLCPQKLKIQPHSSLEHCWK

| Compound | IC50 [1] [µM] | IC50 [2] [µM] | solubility at 1 h [3] [mg/mL] | solubility at 2 h [3] [mg/mL] |
| --- | --- | --- | --- | --- |
| Cc1cnc2nc(N3CCN(C)CC3)c3nncn3c2c1 [Compound 2, 8-Methyl-4-(4-methylpiperazin-1-yl)pyrido[2,3-e][1,2,4]triazolo[4,3-a]pyrazine] | > 100 | 0.506 | – | – |
| CCOc1nc2nc(N3CCN(C)CC3)c3nncn3c2cc1Cl [Compound 23, 8-Chloro-7-ethoxy-4-(4-methylpiperazin-1-yl)pyrido[2,3-e][1,2,4]triazolo[4,3-a]pyrazine] | > 100 | 0.14 | – | – |
| CN1CCN(c2nc3ncc(Cl)cc3c3ncnn23)CC1 [Compound 35, 9-Chloro-5-(4-methylpiperazin-1-yl)pyrido[3,2-e][1,2,4]triazolo[1,5-c]pyrimidine] | – | 0.17 | – | – |
| CN1CCN(c2nc3ncc(Cl)cc3c3cn(C)nc23)CC1 [Compound 43, 8-Chloro-2-methyl-4-(4-methylpiperazin-1-yl)-2H-pyrazolo[3,4-c][1,8]naphthylidine] | 97 | 0.07 | – | – |
| CN1CCN(c2nc3ncc(Cl)cc3n3ccnc23)CC1 [Compound 46, 8-Chloro-4-(4-methylpiperazin-1-yl)imidazo[1,2-a]pyrido[2,3-e]pyrazine] | – | 0.154 | 1.91 (≈ 6.32 mM) | 1.1 (≈ 3.64 mM) |
| Clc1cnc2nc(N3CCNCC3)c3nccn3c2c1 [Compound 47, 8-Chloro-4-(piperazin-1-yl)imidazo[1,2-a]pyrido[2,3-e]pyrazine] | – | 0.618 | – | – |
| CN1CCN(c2nc3ncc(I)cc3n3cnnc23)CC1 [Compound 49, 8-Iodo-4-(4-methylpiperazin-1-yl)pyrido[2,3-e][1,2,4]triazolo[4,3-a]pyrazine] | > 100 | 0.034 | – | – |
| CN1CCN(c2nc3nc(OCC(F)(F)F)c(Cl)cc3n3cnnc23)CC1 [Compound 64, 8-Chloro-4-(4-methylpiperazin-1-yl)-7-(2,2,2-trifluoroethoxy)pyrido[2,3-e][1,2,4]triazolo[4,3-a]pyrazine] | > 100 | 0.24 | – | – |
| Cc1c(Br)cnc2nc(N3CCN(C)CC3)c3nncn3c12 [Compound 66, 8-Bromo-9-methyl-4-(4-methylpiperazin-1-yl)pyrido[2,3-e][1,2,4]triazolo[4,3-a]pyrazine] | – | 0.3 | – | – |
| Brc1cnc2nc(N3CCN4CCCC4C3)c3nncn3c2c1 (stereo not shown) [Compound 74, 8-Bromo-4-(hexahydropyrrolo[1,2-a]pyrazin-2(1H)-yl)pyrido[2,3-e][1,2,4]triazolo[4,3-a]pyrazine] | – | 0.06 | 1.53 (≈ 4.08 mM) | 0.646 (≈ 1.73 mM) |
| Ic1cnc2nc(N3CCN4CCCC4C3)c3nncn3c2c1 (stereo not shown) [Compound 75, 4-(Hexahydropyrrolo[1,2-a]pyrazin-2(1H)-yl)-8-iodopyrido[2,3-e][1,2,4]triazolo[4,3-a]pyrazine] | – | 0.064 | 2 (≈ 4.76 mM) | 0.723 (≈ 1.72 mM) |
| CNC1CN(c2nc3ncc(Cl)cc3c3oc(C)nc23)C1 [Compound 91, 1-(8-Chloro-2-methyloxazolo[4,5-c][1,8]naphthylidine-4-yl)-N-methylazetidin-3-amine] | > 100 | – | 1.84 (≈ 6.04 mM) | 1.94 (≈ 6.4 mM) |
| CN1CCN(c2nc3ncc(Cl)cc3n3nnnc23)CC1 [Compound 94, 8-Chloro-4-(4-methylpiperazin-1-yl)pyrido[2,3-e]tetrazolo[1,5-a]pyrazine] | – | 0.062 | – | – |
| CN1CCN(c2nc3ncc(Br)cc3n3nnnc23)CC1 [Compound 96, 8-Bromo-4-(4-methylpiperazin-1-yl)pyrido[2,3-e]tetrazolo[1,5-a]pyrazine] | – | 0.028 | – | – |
| Cc1nc2c(N3CCN(C)CC3)nc3ncc(Cl)cc3n2n1 [Compound 98, 8-Chloro-2-methyl-4-(4-methylpiperazin-1-yl)pyrido[2,3-e][1,2,4]triazolo[1,5-a]pyrazine] | – | 0.011 | 1.7 (≈ 5.36 mM) | 1.09 (≈ 3.44 mM) |
| Cc1nc2nc(N3CCN(C)CC3)c3nncn3c2cc1Br [Compound 100, 8-bromo-7-methyl-4-(4-methylpiperazin-1-yl)pyrido[2,3-e][1,2,4]triazolo[4,3-a]pyrazine] | > 100 | 0.231 | – | – |
| CNC1CN(c2nc3ncc(Br)cc3c3cc(C)nn23)C1 [Compound 109, 1-(9-bromo-2-methylpyrazolo[1,5-c]pyrido[3,2-e]pyrimidin-5-yl)-N-methylazetidin-3-amine] | > 100 | – | – | – |
| CNC1CN(c2nc3ncc(Br)cc3n3cccc23)C1 [Compound 115, 1-(2-bromopyrido[2,3-e]pyrrolo[1,2-a]pyrazin-6-yl)-N-methylazetidin-3-amine] | > 100 | – | – | – |

Second part, the compound after the results:

| IC50 [1] [µM] | IC50 [2] [µM] | solubility at 1 h [3] [mg/mL] | solubility at 2 h [3] [mg/mL] | Compound |
| --- | --- | --- | --- | --- |
| > 100 | 0.49 | – | – | CNC1CN(c2nc3nc(C#N)c(Cl)cc3n3cnnc23)C1 [Compound 28, 8-Chloro-4-(3-(methylamino)azetidin-1-yl)pyrido[2,3-e][1,2,4]triazolo[4,3-a]pyrazin-7-carbonitrile] |
| > 100 | 0.71 | – | – | CNC1CN(c2nc3ncc(C(F)F)cc3n3cnnc23)C1 [Compound 51, 1-(8-(Difluoromethyl)pyrido[2,3-e][1,2,4]triazolo[4,3-a]pyrazin-4-yl)-N-methylazetidin-3-amine] |
| > 100 | 0.26 | – | – | C=Cc1cnc2nc(N3CC(NC)C3)c3nncn3c2c1 [Compound 55, N-Methyl-1-(8-vinylpyrido[2,3-e][1,2,4]triazolo[4,3-a]pyrazin-4-yl)azetidin-3-amine] |
| > 100 | 0.61 | – | – | COc1nc2nc(N3CCN(C)CC3)c3nncn3c2cc1Cl [Compound 60, 8-Chloro-7-methoxy-4-(4-methylpiperazin-1-yl)pyrido[2,3-e][1,2,4]triazolo[4,3-a]pyrazine] |
| > 100 | 0.58 | – | – | CCOc1nc2nc(N3CCNCC3)c3nncn3c2cc1Cl [Compound 63, 8-Chloro-7-ethoxy-4-(piperazin-1-yl)pyrido[2,3-e][1,2,4]triazolo[4,3-a]pyrazine] |
| > 100 | 0.314 | – | – | CNC1CN(c2nc3ncc(Cl)c(Cl)c3n3cnnc23)C1 [Compound 67, 1-(8,9-Dichloropyrido[2,3-e][1,2,4]triazolo[4,3-a]pyrazin-4-yl)-N-methylazetidin-3-amine] |
| > 100 | – | – | – | CNC1CN(c2nc3ncc(Br)cc3n3cc(C)nc23)C1 [Compound 108, 1-(8-bromo-2-methylimidazo[1,2-a]pyrido[2,3-e]pyrazin-4-yl)-N-methylazetidin-3-amine] |
| > 100 | – | – | – | CNC1CN(c2nc3ncc(N)cc3n3cnnc23)C1 [Compound 112, 4-(3-(methylamino)azetidin-1-yl)pyrido[2,3-e][1,2,4]triazolo[4,3-a]pyrazin-8-amine] |
| > 100 | – | – | – | CNC1CN(c2nc3ncc(-c4ccccc4)cc3n3cnnc23)C1 [Compound 113, N-methyl-1-(8-phenylpyrido[2,3-e][1,2,4]triazolo[4,3-a]pyrazin-4-yl)azetidin-3-amine] |
| > 100 | – | – | – | CNC1CN(c2nc3ncc(-c4ccco4)cc3n3cnnc23)C1 [Compound 114, 1-(8-(furan-2-yl)pyrido[2,3-e][1,2,4]triazolo[4,3-a]pyrazin-4-yl)-N-methylazetidin-3-amine] |
| > 100 | 0.21 | – | – | CNC1CN(c2nc3cnc(Cl)cc3n3cnnc23)C1 [Compound 117, 1-(8-chloropyrido[3,4-e][1,2,4]triazolo[4,3-a]pyrazin-4-yl)-N-methylazetidin-3-amine] |

— patent US9586959B2, “Substituted tricyclic heterocycles as histamine 4 receptor inhibitors” (C&C RESEARCH LABORATORIES, priority 2011, dated 2017)
